The values below come from PubChem BioAssay AID328 (DTP/NCI, 2004).

The structures appear in SMILES notation. Where “and” joins values, the source holds several entries; their conditions need not be identical. Equal values may be shown once. Inconclusive results and toxic doses are left out.

The test system of this assay is BDF1 mice, P388 leukemia ip, median survival T/C. The experiment in a line: NCI In Vivo Anticancer Drug Screen. Data for tumor model P388 Leukemia (intraperitoneal) in B6D2F1 (BDF1) mice. Conditions: endpoint: median survival time, higher = longer survival. The method in brief: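 Compound-treated tumour-bearing mice were compared with vehicle-treated controls. Survival was recorded, and the value is the treated-group measurement divided by the control-group measurement (T/C).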

Setting [1] is: dose: 100.0 mg/kg/injection, schedule: Q04DX003 (ip), vehicle: saline.
The mark [2] stands for this setting: dose: 200.0 mg/kg/injection, schedule: Q04DX003 (ip), vehicle: saline.
Where [3] appears, read: dose: 200.0 mg/kg/injection, schedule: Q01DX009 (ip), vehicle: Klucel (hydroxypropylcellulose) (HPC).
Where [4] appears, read: dose: 400.0 mg/kg/injection, schedule: Q01DX009 (ip), vehicle: Klucel (hydroxypropylcellulose) (HPC).
Setting [5] is: dose: 400.0 mg/kg/injection, schedule: Q04DX003 (ip), vehicle: Klucel (hydroxypropylcellulose) (HPC).
Setting [6] is: dose: 50.0 mg/kg/injection, schedule: Q01DX009 (ip), vehicle: saline with Tween-80.
The mark [7] stands for this setting: dose: 100.0 mg/kg/injection, schedule: Q01DX009 (ip), vehicle: saline with Tween-80.
Setting [8] is: dose: 100.0 mg/kg/injection, schedule: Q04DX003 (ip), vehicle: saline with Tween-80.
[9] abbreviates: dose: 100.0 mg/kg/injection, schedule: Q04DX002 (ip), vehicle: saline with Tween-80.
Setting [10] is: dose: 200.0 mg/kg/injection, schedule: Q04DX002 (ip), vehicle: saline with Tween-80.
The mark [11] stands for this setting: dose: 400.0 mg/kg/injection, schedule: Q04DX002 (ip), vehicle: saline with Tween-80.

On to `O=C1OC(C(O)CO)C(O)=C1O` (centres undefined), for which the T/C runs as follows: (dose: 0.01 mg/kg/injection, schedule: Q01DX009 (ip), vehicle: saline) 105 % of control and 109 % of control; (dose: 0.03 mg/kg/injection, schedule: Q01DX009 (ip), vehicle: saline) 91 % of control and 100 % of control and 118 % of control; (dose: 0.06 mg/kg/injection, schedule: Q01DX009 (ip), vehicle: saline) 97 % of control and 100 % of control and 113 % of control; (dose: 0.24 mg/kg/injection, schedule: Q01DX009 (ip), vehicle: saline) 102 % of control; (dose: 0.25 mg/kg/injection, schedule: Q01DX009 (ip), vehicle: saline) 90 % of control and 110 % of control; (dose: 0.5 mg/kg/injection, schedule: Q01DX009 (ip), vehicle: saline) 95 % of control and 105 % of control. Moreover, the T/C reads like this: (dose: 1.0 mg/kg/injection, schedule: Q01DX001 (ip), vehicle: saline) 100 % of control; (dose: 1.0 mg/kg/injection, schedule: Q01DX009 (ip), vehicle: saline) 90 % of control and 95 % of control; (dose: 2.0 mg/kg/injection, schedule: Q01DX001 (ip), vehicle: saline) 100 % of control; (dose: 2.0 mg/kg/injection, schedule: Q01DX009 (ip), vehicle: saline) 95 % of control; (dose: 4.0 mg/kg/injection, schedule: Q01DX001 (ip), vehicle: saline) 105 % of control; (dose: 4.0 mg/kg/injection, schedule: Q01DX009 (ip), vehicle: saline) 90 % of control. Moreover, the T/C (dose: 8.0 mg/kg/injection, schedule: Q01DX009 (ip), vehicle: saline) is 100 % of control; the T/C (dose: 16.0 mg/kg/injection, schedule: Q01DX001 (ip), vehicle: saline) was 105 % of control; the T/C (dose: 16.0 mg/kg/injection, schedule: Q01DX009 (ip), vehicle: saline) was 100 % of control; the T/C (dose: 32.0 mg/kg/injection, schedule: Q01DX001 (ip), vehicle: saline) is 100 % of control; the T/C (dose: 32.0 mg/kg/injection, schedule: Q01DX009 (ip), vehicle: saline) was 90 % of control; the T/C (dose: 64.0 mg/kg/injection, schedule: Q01DX001 (ip), vehicle: saline) was 95 % of control. The T/C (dose: 100.0 mg/kg/injection, schedule: Q01DX009 (ip), vehicle: saline) was 100 % of control; the T/C under setting [1] was 95 % of control; the T/C (dose: 200.0 mg/kg/injection, schedule: Q01DX009 (ip), vehicle: saline) was 105 % of control; the T/C under setting [2] was 95 % of control; the T/C (dose: 400.0 mg/kg/injection, schedule: Q04DX003 (ip), vehicle: saline) was 95 % of control.

Consider `CC(C)Cn1cnc2c(Sc3c([N+](=O)[O-])ncn3C)nc(N)nc21`, for which the T/C was 115 % of control (dose: 67.0 mg/kg/injection, schedule: Q01DX009 (ip), vehicle: Klucel (hydroxypropylcellulose) (HPC)); 91 % of control and 104 % of control under setting [3]; 86 % of control under setting [4]; 118 % of control under setting [5].

For `CCCCCCCCCCCCc1c(C(OC)OC)[nH]c(=S)[nH]c1=O`, the T/C reads like this: (dose: 100.0 mg/kg/injection, schedule: Q01DX009 (ip), vehicle: Klucel (hydroxypropylcellulose) (HPC)) 107 % of control; (dose: 100.0 mg/kg/injection, schedule: Q04DX003 (ip), vehicle: Klucel (hydroxypropylcellulose) (HPC)) 104 % of control; under setting [3], 88 % of control; (dose: 200.0 mg/kg/injection, schedule: Q04DX003 (ip), vehicle: Klucel (hydroxypropylcellulose) (HPC)) 100 % of control; under setting [4], 96 % of control; under setting [5], 100 % of control.

Consider `CC1(C)N=C(N)N=C(N)N1c1ccc(OCC(=O)N2CCOCC2)cc1`, for which the T/C is, setting by setting: (dose: 25.0 mg/kg/injection, schedule: Q01DX009 (ip), vehicle: saline) 113 % of control; (dose: 50.0 mg/kg/injection, schedule: Q01DX009 (ip), vehicle: saline) 113 % of control.

Turning to `O=[N+]([O-])/C=C/c1ccccc1Cl`, the T/C by setting is: (dose: 2.2 mg/kg/injection, schedule: Q01DX009 (ip), vehicle: other) 110 % of control; (dose: 3.3 mg/kg/injection, schedule: Q01DX009 (ip), vehicle: other) 119 % of control; (dose: 5.0 mg/kg/injection, schedule: Q01DX009 (ip), vehicle: other) 122 % of control; (dose: 6.6 mg/kg/injection, schedule: Q04DX003 (ip), vehicle: other) 109 % of control; (dose: 7.5 mg/kg/injection, schedule: Q01DX009 (ip), vehicle: other) 115 % of control; (dose: 10.0 mg/kg/injection, schedule: Q04DX003 (ip), vehicle: other) 104 % of control. Moreover, the T/C is, setting by setting: (dose: 37.5 mg/kg/injection, schedule: Q01DX009 (sc), vehicle: olive oil, sesame oil, peanut oil) 100 % of control; (dose: 37.5 mg/kg/injection, schedule: Q04DX003 (sc), vehicle: olive oil, sesame oil, peanut oil) 95 % of control; (dose: 75.0 mg/kg/injection, schedule: Q01DX009 (sc), vehicle: olive oil, sesame oil, peanut oil) 109 % of control; (dose: 75.0 mg/kg/injection, schedule: Q04DX003 (sc), vehicle: olive oil, sesame oil, peanut oil) 90 % of control; (dose: 150.0 mg/kg/injection, schedule: Q01DX009 (sc), vehicle: olive oil, sesame oil, peanut oil) 100 % of control; (dose: 150.0 mg/kg/injection, schedule: Q04DX003 (sc), vehicle: olive oil, sesame oil, peanut oil) 104 % of control.

As to `CCCc1cc(CCC)n2nc(N)nc2n1`, the T/C under setting [6] was 109 % of control and the T/C under setting [7] is 100 % of control.

On to `COc1ccc2c(c1)CCC(=O)O2`, for which the T/C by setting is: (dose: 100.0 mg/kg/injection, schedule: Q04DX003 (ip), vehicle: saline sonified) 91 % of control; (dose: 200.0 mg/kg/injection, schedule: Q04DX003 (ip), vehicle: saline sonified) 95 % of control; (dose: 400.0 mg/kg/injection, schedule: Q04DX003 (ip), vehicle: saline sonified) 100 % of control.

As for `N#CC(C(N)=O)c1ccccc1` (centres undefined), the T/C by setting is: (dose: 25.0 mg/kg/injection, schedule: Q04DX003 (ip), vehicle: saline with Tween-80) 102 % of control; (dose: 50.0 mg/kg/injection, schedule: Q04DX003 (ip), vehicle: saline with Tween-80) 108 % of control; under setting [8], 97 % of control.

On to `CCCC(=O)OCc1ccc(Cl)c(Cl)c1`, for which the T/C reads like this: (dose: 25.0 mg/kg/injection, schedule: Q01DX009 (ip), vehicle: saline with Tween-80) 100 % of control; under setting [6], 108 % of control; under setting [7], 112 % of control.

Turning to `CC(CCCc1ccccc1)(C(=O)O)C(=O)O`, the T/C under setting [9] is 96 % of control, the T/C under setting [10] is 98 % of control and the T/C under setting [11] was 102 % of control.

Consider `CCC(=O)O[C@H]1CC[C@H]2[C@@H]3CCC4=CC(=O)C[C@]4(C)[C@H]3CC[C@]12C`, for which the T/C was 100 % of control under setting [6]; 100 % of control under setting [7]; 110 % of control under setting [8]; 113 % of control (dose: 200.0 mg/kg/injection, schedule: Q01DX009 (ip), vehicle: saline with Tween-80); 105 % of control (dose: 200.0 mg/kg/injection, schedule: Q04DX003 (ip), vehicle: saline with Tween-80).

For `COc1cc(Cc2nccc3cc(OC)c(OC)cc23)c(C(C)=O)c(OC)c1`, the T/C was 157 % of control and 190 % of control (dose: 10.0 mg/kg/injection, schedule: Q01DX009 (ip), vehicle: saline); 163 % of control and 170 % of control (dose: 20.0 mg/kg/injection, schedule: Q01DX009 (ip), vehicle: saline); 154 % of control (dose: 25.0 mg/kg/injection, schedule: Q04DX003 (ip), vehicle: saline); 157 % of control (dose: 50.0 mg/kg/injection, schedule: Q04DX003 (ip), vehicle: saline); 203 % of control and 206 % of control under setting [1]; 93 % of control under setting [2].

Consider `CC(C)(C)c1cc([N+](=O)[O-])cc([N+](=O)[O-])c1O`, for which the T/C is, setting by setting: (dose: 0.78 mg/kg/injection, schedule: Q01DX009 (ip), vehicle: saline with Tween-80) 105 % of control; (dose: 1.56 mg/kg/injection, schedule: Q01DX009 (ip), vehicle: saline with Tween-80) 101 % of control; (dose: 3.13 mg/kg/injection, schedule: Q01DX009 (ip), vehicle: saline with Tween-80) 101 % of control; (dose: 6.25 mg/kg/injection, schedule: Q01DX009 (ip), vehicle: saline with Tween-80) 99 % of control.

With `c1ccc(C2CC3CCCCN3O2)cc1` (centres undefined), the T/C was 94 % of control under setting [9], 103 % of control under setting [10] and 86 % of control under setting [11].
